Target: Bacillus anthracis lethal factor (Bacillus anthracis, UniProt P15917)
Experiment: biochemical

Bacillus anthracis lethal factor, sequence (P15917 34-809 limits assumed): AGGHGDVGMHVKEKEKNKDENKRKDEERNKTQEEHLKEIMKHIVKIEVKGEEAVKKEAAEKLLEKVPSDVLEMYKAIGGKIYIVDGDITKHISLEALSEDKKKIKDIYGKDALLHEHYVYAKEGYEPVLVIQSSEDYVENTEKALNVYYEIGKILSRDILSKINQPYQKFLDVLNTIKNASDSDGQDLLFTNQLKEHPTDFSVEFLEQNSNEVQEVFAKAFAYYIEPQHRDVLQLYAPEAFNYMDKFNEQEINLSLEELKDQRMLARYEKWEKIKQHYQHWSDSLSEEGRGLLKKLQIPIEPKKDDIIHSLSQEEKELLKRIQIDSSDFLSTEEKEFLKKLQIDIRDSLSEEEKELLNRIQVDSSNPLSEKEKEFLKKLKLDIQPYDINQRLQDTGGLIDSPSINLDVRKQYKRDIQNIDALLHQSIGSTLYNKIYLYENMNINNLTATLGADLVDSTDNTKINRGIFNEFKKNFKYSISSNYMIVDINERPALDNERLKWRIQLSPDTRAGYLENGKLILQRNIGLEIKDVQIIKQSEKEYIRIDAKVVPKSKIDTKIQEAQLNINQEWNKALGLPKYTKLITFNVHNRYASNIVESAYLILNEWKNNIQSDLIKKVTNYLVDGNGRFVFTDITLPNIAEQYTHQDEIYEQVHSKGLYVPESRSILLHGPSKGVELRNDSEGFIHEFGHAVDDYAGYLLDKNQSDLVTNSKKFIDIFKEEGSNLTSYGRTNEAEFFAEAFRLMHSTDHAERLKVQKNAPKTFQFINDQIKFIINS

Cc1cc(S(=O)(=O)N[C@@H](C(=O)NO)C2CCOCC2)ccc1F
IC50: 60 nM

Source: US7504425B2 (priority 2002, dated 2009)
